Test results reported in publication PMC7156458, “Synthetic biology based construction of biological activity-related library of fungal decalin-containing diterpenoid pyrones” (Nature Communications, 2020).
Read-outs that look alike come from different tables or passages of the source.

Experiments:
MCF-7 cells = experiment: cell cytotoxic effects against MCF-7 cells (72 h), A490; type: cell-based, human; settings: MCF-7, 72 h
[1] = cytotoxicity in Drosophila DL1 cells; type: cell-based; settings: Drosophila, DL1 cells (embryonic macrophage-derived), DL1 cells
Description: (§1) We screened the DDPs on the Drosophila assay system for cytotoxicity, inhibitory activity of innate immune signalling and insecticidal activity. The cytotoxicity of the DDPs was evaluated using two cell lines, embryonic macrophage-derived DL1 cells[58]–[60] and larval blood cell-derived l(2)mbn cells, and their IC50 values are listed in Supplementary Table 23.

DL1 cells = experiment: cytotoxicity in Drosophila DL1 cells; type: cell-based; settings: DL1 cells; for IC50: Drosophila melanogaster, cytotoxicity
Description: as §1

[2] = system: human immunodeficiency virus-1 (HIV-1); experiment: anti-HIV MAGI assay; type: cell-based; settings: Human immunodeficiency virus 1, MAGI, anti-HIV
Text: We examined the inhibitory activities of DDPs against various species of bacteria (both gram-negative and gram-positive bacteria), fungi and viruses. […] In contrast, preliminary screening of the DDPs for anti-viral agents with hepatitis B virus (HBV), measles virus (MV), Epstein-Barr virus (EBV), herpes simplex virus (HSV) and human immunodeficiency virus-1 (HIV-1) indicated their selective inhibition of HIV.

MAGI cells = experiment: cytotoxicity in the anti-HIV assay (CC50); type: cell-based; settings: single determinations
HBC-5 = experiment: cells; design: species or system JFCR39 human cancer cell lines; JFCR39 panel growth inhibition, sulforhodamine B total protein after 48 h; settings: HBC5, 48 h
Method in brief: (§2)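 Growth inhibition in JFCR39 human cancer lines was quantified by the SRB total-protein method following 48 h compound treatment. GI50 came from duplicate runs.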

LOX-IMVI = experiment: cells; design: species or system JFCR39 human cancer cell lines; JFCR39 panel growth inhibition, sulforhodamine B total protein after 48 h; settings: Homo sapiens, LOX IMVI, 48 h
Method in brief: as §2

MDA-MB-231 = experiment: cells; design: species or system JFCR39 human cancer cell lines; JFCR39 panel growth inhibition, sulforhodamine B total protein after 48 h; settings: Homo sapiens, MDA-MB-231, 48 h
Method in brief: as §2

MKN-B = experiment: cells; design: species or system JFCR39 human cancer cell lines; JFCR39 panel growth inhibition, sulforhodamine B total protein after 48 h; settings: 48 h
Method in brief: as §2

MKN1 = experiment: cells; design: species or system JFCR39 human cancer cell lines; JFCR39 panel growth inhibition, sulforhodamine B total protein after 48 h; settings: Homo sapiens, MKN-1, 48 h
Method in brief: as §2

OVCAR-3 = experiment: cells; design: species or system JFCR39 human cancer cell lines; JFCR39 panel growth inhibition, sulforhodamine B total protein after 48 h; settings: Homo sapiens, OVCAR-3, 48 h
Method in brief: as §2

OVCAR-8 = experiment: cells; design: species or system JFCR39 human cancer cell lines; JFCR39 panel growth inhibition, sulforhodamine B total protein after 48 h; settings: Homo sapiens, OVCAR-8, 48 h
Method in brief: as §2

[3] = replicate 1, relative to DMSO 1%, read-out: % viability, viability 1
[4] = replicate 2, relative to DMSO 1%, read-out: % viability, viability 2

`C=C1CCC2C(C)(CCC=C(C)C)C(O)CCC2(C)C1Cc1c(OC)oc(C)c(C(=O)OC)c1=O` (centres unmarked) [Compound 14] showed a viability at 0.1 µM (MCF-7 cells; Homo sapiens, MCF7, 72 h, 0.1 µM (DMSO 0.002%), read-out: A490 (control =1) ave) of 74.8%, a viability at 1 µM (MCF-7 cells; Homo sapiens, MCF7, 72 h, 1 µM (DMSO 0.02%), read-out: A490 (control =1) ave) of 75.6% and a viability at 10 µM (MCF-7 cells; Homo sapiens, MCF7, 72 h, 10 µM (DMSO 0.2%), read-out: A490 (control =1) ave) of 19.7%. The A490 ave (MCF-7 cells; 0.1 µM (DMSO 0.002%), control 1.064) was 0.796, the A490 ave (MCF-7 cells; 1 µM (DMSO 0.02%), control 1.104) was 0.834 and the A490 ave (MCF-7 cells; 10 µM (DMSO 0.2%), control 1.049) was 0.207. It also gave a viability at 0.04 µM [1, 3] of 109%, a viability at 0.04 µM [1, 4] of 115% and a viability at 0.2 µM [1, 3] of 94.8%. For the same compound, the viability at 0.2 µM [1, 4] was 82.2%, the viability at 1 µM [1, 3] was 10.1% and the viability at 1 µM [1, 4] was 8.02%. For the same compound, the viability at 4 µM [1, 3] was 5.72%, the viability at 4 µM [1, 4] was 6.14% and the viability at 10 µM [1, 3] was 6.46%. It also gave a viability at 10 µM [1, 4] of 5.9%, a viability at 20 µM [1, 3] of 5.02% and a viability at 20 µM [1, 4] of 4.22%. For the same compound, the “Luminescence Raw1” value (DL1 cells; 0.04 µM, replicate 1) was 2252387, the “Luminescence Raw2” value (DL1 cells; 0.04 µM, replicate 2) was 2365278 and the “Luminescence Raw1” value (DL1 cells; 0.2 µM, replicate 1) was 1952676. For the same compound, the “Luminescence Raw2” value (DL1 cells; 0.2 µM, replicate 2) was 1693730, the “Luminescence Raw1” value (DL1 cells; 1 µM, replicate 1) was 208403 and the “Luminescence Raw2” value (DL1 cells; 1 µM, replicate 2) was 165136. The “Luminescence Raw1” value (DL1 cells; 4 µM, replicate 1) was 117902, the “Luminescence Raw2” value (DL1 cells; 4 µM, replicate 2) was 126556 and the “Luminescence Raw1” value (DL1 cells; 10 µM, replicate 1) was 133046. The “Luminescence Raw2” value (DL1 cells; 10 µM, replicate 2) was 121508, the “Luminescence Raw1” value (DL1 cells; 20 µM, replicate 1) was 103480 and the “Luminescence Raw2” value (DL1 cells; 20 µM, replicate 2) was 86894. The IC50 (DL1 cells; average of two replicates, read-out: IC50 Average) was 0.438 µM, the IC50 (DL1 cells; average±SEM, read-out: IC50) was 0.44 ± 0.06 µM and the IC50 (DL1 cells; replicate 1, read-out: IC50 (1)) was 0.502 µM. For the same compound, the IC50 (DL1 cells; replicate 2, read-out: IC50 (2)) was 0.374 µM, the EC50 ([2]; MAGI assay, read-out: EC50) was under 0.2 µM and the EC50 ([2]; average of numeric determinations, read-out: Avg. EC50) was 0.0457 µM. It also gave a Cytotoxicity (MAGI cells) of over 10 µM, a GI50 (HBC-5) of 12.1 µM and a GI50 (LOX-IMVI) of 10.8 µM. The GI50 (MDA-MB-231) was 13.2 µM, the GI50 (MKN-B) was 2.01 µM and the GI50 (MKN1) was 16.1 µM. For the same compound, the GI50 (OVCAR-3) was 10.3 µM and the GI50 (OVCAR-8) was 8.57 µM.
